Measured values reported in publication PMC8105715, “Modeling of full-length Piezo1 suggests importance of the proximal N-terminus for dome structure” (Biophysical Journal, 2021).

Target: T1, human Piezo1 (Homo sapiens, UniProt Q92508)
T1 construct: stably expressed in HEK 293 TREx cells, tetracycline-inducible (P1 HEK TREx); homotrimer
Test: fura-2 intracellular Ca2+ plate-reader assay, inhibition of Yoda1-evoked response
Format: cell-based
Settings: unreliable (estimated; limited solubility); 5 uM Yoda1; cells pretreated 30 min at 37 C with cholesterol-MbetaCD complex; nominal bath concentration; site not shown, may act through membrane; pH 7.4

T1 sequence (Q92508 whole entry): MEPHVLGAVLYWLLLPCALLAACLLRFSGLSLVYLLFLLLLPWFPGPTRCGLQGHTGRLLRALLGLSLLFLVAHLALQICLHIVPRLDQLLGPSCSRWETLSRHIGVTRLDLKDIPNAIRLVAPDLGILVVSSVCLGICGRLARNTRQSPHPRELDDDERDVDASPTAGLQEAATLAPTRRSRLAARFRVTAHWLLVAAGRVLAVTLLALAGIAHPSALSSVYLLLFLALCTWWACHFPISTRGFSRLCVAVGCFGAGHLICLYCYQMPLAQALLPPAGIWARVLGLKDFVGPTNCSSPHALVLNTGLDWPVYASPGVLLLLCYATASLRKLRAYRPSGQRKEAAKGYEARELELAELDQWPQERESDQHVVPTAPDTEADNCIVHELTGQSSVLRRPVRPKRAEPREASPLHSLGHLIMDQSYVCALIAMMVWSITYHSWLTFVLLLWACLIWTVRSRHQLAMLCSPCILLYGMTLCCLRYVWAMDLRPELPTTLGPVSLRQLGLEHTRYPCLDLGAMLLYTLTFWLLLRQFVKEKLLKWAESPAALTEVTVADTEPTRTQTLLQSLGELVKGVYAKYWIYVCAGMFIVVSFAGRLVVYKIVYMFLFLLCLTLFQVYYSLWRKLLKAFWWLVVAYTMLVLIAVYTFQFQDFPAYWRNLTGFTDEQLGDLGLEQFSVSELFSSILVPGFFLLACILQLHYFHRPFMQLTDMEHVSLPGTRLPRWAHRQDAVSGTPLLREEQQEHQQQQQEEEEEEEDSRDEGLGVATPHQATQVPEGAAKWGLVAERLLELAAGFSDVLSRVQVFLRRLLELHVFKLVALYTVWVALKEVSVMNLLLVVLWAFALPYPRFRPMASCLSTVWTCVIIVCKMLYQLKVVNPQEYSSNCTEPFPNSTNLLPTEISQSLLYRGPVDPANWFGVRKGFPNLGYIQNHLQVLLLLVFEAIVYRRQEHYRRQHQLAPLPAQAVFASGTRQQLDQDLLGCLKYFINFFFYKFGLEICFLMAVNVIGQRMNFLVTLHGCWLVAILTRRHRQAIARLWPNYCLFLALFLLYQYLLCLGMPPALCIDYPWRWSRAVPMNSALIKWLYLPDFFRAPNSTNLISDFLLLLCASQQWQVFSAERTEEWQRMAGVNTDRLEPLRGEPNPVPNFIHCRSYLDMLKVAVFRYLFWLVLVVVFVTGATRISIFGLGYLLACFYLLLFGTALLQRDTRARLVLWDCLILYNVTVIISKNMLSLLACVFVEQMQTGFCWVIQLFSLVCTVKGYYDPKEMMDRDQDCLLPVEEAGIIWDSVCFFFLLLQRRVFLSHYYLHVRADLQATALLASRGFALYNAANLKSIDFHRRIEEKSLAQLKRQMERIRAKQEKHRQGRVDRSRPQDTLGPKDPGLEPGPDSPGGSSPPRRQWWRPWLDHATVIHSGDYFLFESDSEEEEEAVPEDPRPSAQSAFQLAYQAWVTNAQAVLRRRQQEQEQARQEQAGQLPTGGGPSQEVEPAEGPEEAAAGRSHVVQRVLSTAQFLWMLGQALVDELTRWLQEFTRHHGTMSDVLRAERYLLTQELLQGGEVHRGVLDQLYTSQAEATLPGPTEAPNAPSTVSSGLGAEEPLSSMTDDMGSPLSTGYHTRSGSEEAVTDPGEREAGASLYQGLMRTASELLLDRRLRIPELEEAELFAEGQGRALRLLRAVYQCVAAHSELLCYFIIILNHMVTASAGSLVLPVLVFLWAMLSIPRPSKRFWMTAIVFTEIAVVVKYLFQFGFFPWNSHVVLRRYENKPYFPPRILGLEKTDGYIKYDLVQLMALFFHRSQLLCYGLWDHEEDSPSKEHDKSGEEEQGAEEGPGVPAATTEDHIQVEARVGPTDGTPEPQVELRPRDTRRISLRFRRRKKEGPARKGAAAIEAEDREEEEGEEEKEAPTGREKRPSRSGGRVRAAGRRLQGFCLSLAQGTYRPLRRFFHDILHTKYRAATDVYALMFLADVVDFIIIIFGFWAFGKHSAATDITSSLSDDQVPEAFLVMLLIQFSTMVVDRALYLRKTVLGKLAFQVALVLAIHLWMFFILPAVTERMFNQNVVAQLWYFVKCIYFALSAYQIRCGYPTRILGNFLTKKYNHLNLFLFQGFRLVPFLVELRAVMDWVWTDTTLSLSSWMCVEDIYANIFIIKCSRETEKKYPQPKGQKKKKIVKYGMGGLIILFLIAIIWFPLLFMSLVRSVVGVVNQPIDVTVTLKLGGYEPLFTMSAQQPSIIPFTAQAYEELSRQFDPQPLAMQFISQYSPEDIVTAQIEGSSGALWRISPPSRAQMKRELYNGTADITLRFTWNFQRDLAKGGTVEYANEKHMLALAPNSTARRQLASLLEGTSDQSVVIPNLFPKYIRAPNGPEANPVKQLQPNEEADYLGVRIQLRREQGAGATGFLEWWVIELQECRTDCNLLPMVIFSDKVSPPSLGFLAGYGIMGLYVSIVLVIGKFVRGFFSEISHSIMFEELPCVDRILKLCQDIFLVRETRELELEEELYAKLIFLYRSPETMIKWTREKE

Compound CC(C)CCC[C@@H](C)[C@H]1CC[C@H]2[C@@H]3CC=C4C[C@@H](O)CC[C@]4(C)[C@H]3CC[C@]12C [cholesterol] has an IC50 of 150 µM.
